Data published in patent publication US4960790A, “Derivatives of taxol, pharmaceutical compositions thereof and methods for the preparation thereof” (University of Kansas, priority 1989, dated 1990).
Counter-ions that a name gives are not always drawn. Like-named read-outs stand apart in the source and are kept apart here. Each block holds one compound with its values, some of them ahead of it.

Experiments:
Solubility = assay type: physicochemical
[1] = Plasma stability, human plasma; assay type: in vitro ADME; settings: 37° C.
Experimental: Stabilities of derivatives at various pHs were studied at 25° and 37°. The plasma studies were conducted at 37° in rat and human plasma. Human plasma was obtained from Watkins Hospital and rat plasma was obtained from the Animal Care Unit of the University of Kansas. […] One hundred microliter samples were removed and was quenched with 250 uL. acetonitrile and centrifuged to precipitate the plasma proteins. The degradation kinetics were studied by HPLC plotting peak area vs. time. The t90 and t50 were calculated. Both chemical and plasma studies were followed by high performance liquid chromatography using a RP-8 column (15 cm) and a precolumn (5 cm). The detector was set at 227 nm. The mobile phase consisted of 0.02M acetate (pH 5): acetonitrile 50:50 or 35:65 and the flow rate ranged from 1-1.5 mL/min or the same solvents containing 0.001M tetrabutylammoniumydrogensulphate and a flow rate of 1 mL/min.

microtubule assembly = assay: In vitro microtubule assembly kinetics; assay type: biochemical; settings: rank order
Experimental: (A) In vitro Microtubule Assembly Kinetics Studies
The microtubule assembly study was conducted using both 2' and 7-derivatives according to the in vitro procedures disclosed, for example, in Mellado et al., Biochemical and Biophysical Research Communications, Vol. 124, No. 2 (1984), pp. 329-336; Magri et al., J. Org. Chem., 51, 797-802 (1986); and Parness et al., Biochemical and Biophysical Research Communications, Vol. 105, No. 3, pp. 1082-1091 (1982).

B-16 melanoma cells = assay: In vitro B16 melanoma cell proliferation; assay type: cell-based; settings: rank order
Experimental: These studies were conducted according to standard procedures as described in Donoso and Himes, Cancer Biochem. Biophysics, vol. 7, (1984), p. 133.

[2] = system: human mammary carcinoma MX-1 xenograft; assay: Subrenal capsule human mammary carcinoma MX-1 xenograft in mice; settings: for % T/C: Q4D Days 1, 5, 9; for % T/C / # OF ANMLS ALIVE CALC/TOTAL / Average tumor WEIGHT CHANGE (DELTA) / Average tumor weight, FINAL: Day 11; for ANML BODY WT DIFF (test minus control) / TEST BODY WT CHG / # OF ANMLS ALIVE CALC/TOTAL / Average tumor WEIGHT CHANGE (DELTA) / Average tumor weight, FINAL: Q4D; for ANML BODY WT DIFF (test minus control) / TEST BODY WT CHG: Day 1 to 11
Text: The procedures followed are those described at pages 23-24 of NIH Publication No. 84-2635, In Vivo Cancer Model (February 1984).
In the procedure, test groups of mice (6 mice per test group) and control groups of 12 mice per group are utilized. A tumor fragment (human mammary carcinoma MX-1 xenograft), is implanted under the membranous covering of the kidney of each mouse.
Day 0: Anesthetize animals. Record body weight (Weigh Day 1). Implant tumor, measure and record. Randomize animals after they recover from the anesthetic. Run bacterial cultures. Determine solubilities of test agent. Record deaths daily.
Day 1: Check cultures. Discard experiment if contaminated. Prepare test materials. Initiate test agent injections (in the nape of the neck) based on individual body weight. Treatment is Q4D on Days 1, 5, and 9. Prepare test agent fresh on each injection day and administer based on individual body weight for that day.
Days 5 and 9: Prepare test agent fresh on each injection day and administer based on individual body weight for that day.
Day 11: End and evaluate experiment. Record body weights (Weigh Day 2). Measure tumor in OMU's (Ocular Micrometer Unit--10 OMU's=1 mm) and record.
The parameter measured is mean tumor weight change (delta) based on length and width measurements in millimeters. Mean animal body weights are computed for Day 1 and Day 11, compute T/C for all test groups with>65% survivors on Day 11. An excessive body weight change difference (test minus control) may also be used in evaluating toxicity. The dimensions are measured and recorded in Ocular Micrometer Units (OMU). A computer is utilized for the following:
(1) Converts OMU's to millimeters (mm).
(2) Calculates tumor weights (mgs) from tumor dimensions (mm×mm) following the formula for the volume of a prolate ellipsoid: [formula] (3) Calculates the change (delta) in mean tumor weight for each group of mice:
Change in Mean Tumor Weight=Mean Tumor WeightFINAL -Mean Tumor WeightINITIAL.
(4) Calculates the change (delta) in mean tumor weight for test (T) and control (C) groups.
(5) Calculates T/C% for all test groups with>65% survivors on Final Evaluation Day: [formula]

[3] = Chemical stability in buffer or water; assay type: physicochemical
Experimental: The compound was subjected to stability studies according to the following procedures.
Stabilities of derivatives at various pHs were studied at 25° and 37°. The plasma studies were conducted at 37° in rat and human plasma. Human plasma was obtained from Watkins Hospital and rat plasma was obtained from the Animal Care Unit of the University of Kansas. The derivative concentration used was around 20-25 μg/ml. A stock solution of the compound was prepared at 0.8-1.0 mg/mL and was added to plasma to give the desired concentration (20-25 μg/mL). One hundred microliter samples were removed and was quenched with 250 uL. acetonitrile and centrifuged to precipitate the plasma proteins. The degradation kinetics were studied by HPLC plotting peak area vs. time. The t90 and t50 were calculated. Both chemical and plasma studies were followed by high performance liquid chromatography using a RP-8 column (15 cm) and a precolumn (5 cm). The detector was set at 227 nm. The mobile phase consisted of 0.02M acetate (pH 5): acetonitrile 50:50 or 35:65 and the flow rate ranged from 1-1.5 mL/min or the same solvents containing 0.001M tetrabutylammoniumydrogensulphate and a flow rate of 1 mL/min.
The identity of this peak was further confirmed by the degradation studies of the new derivatives. Thus, 2'(DMG) taxol was incubated with water at 37° and the product was concentrated and purified by preparative TLC. The product after purification was analyzed by HPLC and spectroscopic methods.

solubility (Solubility; read-out: Solubility): > 2000 µg/mL
half-life ([1]; human plasma (20 μg/mL)): 714 min
Compound: CC(=O)O[C@H]1C(=O)[C@]2(C)[C@@H](OC(=O)[C@H](C)N)C[C@H]3OC[C@@]3(OC(C)=O)[C@H]2[C@H](OC(=O)c2ccccc2)[C@]2(O)C[C@H](OC(=O)[C@H](O)[C@@H](NC(=O)c3ccccc3)c3ccccc3)C(C)=C1C2(C)C [Methanesulphonic acid salt of 7-(alanyl)taxol]

Compound: CC(=O)O[C@H]1C(=O)[C@]2(C)[C@@H](OC(=O)CN(C)C)C[C@H]3OC[C@@]3(OC(C)=O)[C@H]2[C@H](OC(=O)c2ccccc2)[C@]2(O)C[C@H](OC(=O)[C@H](O)[C@@H](NC(=O)c3ccccc3)c3ccccc3)C(C)=C1C2(C)C [Compound 7, 7-(N,N-Dimethylglycyl)Taxol]
Ability to assemble microtubules (order) (microtubule assembly): taxol >7-(N,N-dimethylglycyl)taxol(11)>2'(N,N-diethylaminopropionyl)taxol(8)>2'(N,N-dimethylglycyl)taxol(2)
Order of effectiveness in B-16 melanoma cell proliferation study (B-16 melanoma cells): taxol>2'-(N,N-dimethylglycyl)taxol>2'-(N,N-diethylaminopropionyl)taxol>7-(N,N-dimethylglycyl)taxol
% T/C ([2]; Table 2, 4.13 mg/kg): 34%
ANML BODY WT DIFF (test minus control) ([2]; Table 2, 4.13 mg/kg): -.5
TEST BODY WT CHG ([2]; Table 2, 4.13 mg/kg): -4.5
# OF ANMLS ALIVE CALC/TOTAL ([2]; Table 2, 4.13 mg/kg): 4/5
Average tumor WEIGHT CHANGE (DELTA) ([2]; Table 2, 4.13 mg/kg): 4.92 MGS
Average tumor weight, FINAL ([2]; Table 2, 4.13 mg/kg): 5.66 MGS
% T/C ([2]; Table 2, 8.25 mg/kg): 23%
ANML BODY WT DIFF (test minus control) ([2]; Table 2, 8.25 mg/kg): .1
TEST BODY WT CHG ([2]; Table 2, 8.25 mg/kg): -3.9
# OF ANMLS ALIVE CALC/TOTAL ([2]; Table 2, 8.25 mg/kg): 4/4
Average tumor WEIGHT CHANGE (DELTA) ([2]; Table 2, 8.25 mg/kg): 3.38 MGS
Average tumor weight, FINAL ([2]; Table 2, 8.25 mg/kg): 4.19 MGS
% T/C ([2]; Table 2, 16.50 mg/kg): -93%
ANML BODY WT DIFF (test minus control) ([2]; Table 2, 16.50 mg/kg): -1.7
TEST BODY WT CHG ([2]; Table 2, 16.50 mg/kg): -5.7
# OF ANMLS ALIVE CALC/TOTAL ([2]; Table 2, 16.50 mg/kg): 3/4
Average tumor WEIGHT CHANGE (DELTA) ([2]; Table 2, 16.50 mg/kg): -.55 MGS
Average tumor weight, FINAL ([2]; Table 2, 16.50 mg/kg): .04 MGS
ANML BODY WT DIFF (test minus control) ([2]; Table 2, 33.00 mg/kg): 1.3
TEST BODY WT CHG ([2]; Table 2, 33.00 mg/kg): -2.7
# OF ANMLS ALIVE CALC/TOTAL ([2]; Table 2, 33.00 mg/kg): 4/5
Average tumor WEIGHT CHANGE (DELTA) ([2]; Table 2, 33.00 mg/kg): -.74 MGS
Average tumor weight, FINAL ([2]; Table 2, 33.00 mg/kg): .00 MGS

Compound: CCN(CC)CCC(=O)O[C@@H](C(=O)O[C@H]1C[C@@]2(O)[C@@H](OC(=O)c3ccccc3)[C@@H]3[C@]4(OC(C)=O)CO[C@@H]4C[C@H](O)[C@@]3(C)C(=O)[C@H](OC(C)=O)C(=C1C)C2(C)C)[C@@H](NC(=O)c1ccccc1)c1ccccc1 [Compound 3, HCl salt of 2'-(3-(N,N-diethylamino)propionyl)taxol]
solubility (Solubility): ~ 0.8 mg/mL
half-life ([3]; 0.02 M Acetate, 0.01 mg/mL, pH 3.5, 25° C.): 18.3 days
half-life ([3]; 0.02 M Phosphate, 0.02 mg/mL, pH 7.4, 25° C.): 0.0104 days
half-life ([1]; Human plasma): 4.2 min
ANML BODY WT DIFF (test minus control) ([2]; Table 2, 4.50 mg/kg): 1.2
TEST BODY WT CHG ([2]; Table 2, 4.50 mg/kg): -2.8
# OF ANMLS ALIVE CALC/TOTAL ([2]; Table 2, 4.50 mg/kg): 5/5
Average tumor WEIGHT CHANGE (DELTA) ([2]; Table 2, 4.50 mg/kg): -.78 MGS
Average tumor weight, FINAL ([2]; Table 2, 4.50 mg/kg): .00 MGS
ANML BODY WT DIFF (test minus control) ([2]; Table 2, 9.00 mg/kg): 1.3
TEST BODY WT CHG ([2]; Table 2, 9.00 mg/kg): -2.7
# OF ANMLS ALIVE CALC/TOTAL ([2]; Table 2, 9.00 mg/kg): 5/5
Average tumor WEIGHT CHANGE (DELTA) ([2]; Table 2, 9.00 mg/kg): -.87 MGS
Average tumor weight, FINAL ([2]; Table 2, 9.00 mg/kg): .00 MGS
ANML BODY WT DIFF (test minus control) ([2]; Table 2, 18.00 mg/kg): .7
TEST BODY WT CHG ([2]; Table 2, 18.00 mg/kg): -3.3
# OF ANMLS ALIVE CALC/TOTAL ([2]; Table 2, 18.00 mg/kg): 3/4
Average tumor WEIGHT CHANGE (DELTA) ([2]; Table 2, 18.00 mg/kg): -.82 MGS
Average tumor weight, FINAL ([2]; Table 2, 18.00 mg/kg): .00 MGS
% T/C ([2]; Table 2, 36.00 mg/kg): TOX
# OF ANMLS ALIVE CALC/TOTAL ([2]; Table 2, 36.00 mg/kg): 0/5

Compound: CCN(CC)CCC(=O)O[C@@H](C(=O)O[C@H]1C[C@@]2(O)[C@@H](OC(=O)c3ccccc3)[C@@H]3[C@]4(OC(C)=O)CO[C@@H]4C[C@H](O)[C@@]3(C)C(=O)[C@H](OC(C)=O)C(=C1C)C2(C)C)[C@@H](NC(=O)c1ccccc1)c1ccccc1 [Compound 4, Methanesulphonic acid salt of 2'(N,N-diethylaminopropionyl)taxol]
solubility (Solubility): > 10000 µg/mL
half-life ([3]; 0.02 M acetate, pH 4.5, 25° C.): 12.7 days
half-life ([3]; 0.02 M acetate, pH 5.5, 25° C.): 0.863 days
